Source: ChEMBL document CHEMBL1136024, “CCR3 antagonists: a potential new therapy for the treatment of asthma. Discovery and structure-activity relationships” (Bioorg Med Chem Lett, 2002)

Target: T1, C-C chemokine receptor type 3 (Homo sapiens, UniProt P51677)
T1 sequence (P51677 whole entry): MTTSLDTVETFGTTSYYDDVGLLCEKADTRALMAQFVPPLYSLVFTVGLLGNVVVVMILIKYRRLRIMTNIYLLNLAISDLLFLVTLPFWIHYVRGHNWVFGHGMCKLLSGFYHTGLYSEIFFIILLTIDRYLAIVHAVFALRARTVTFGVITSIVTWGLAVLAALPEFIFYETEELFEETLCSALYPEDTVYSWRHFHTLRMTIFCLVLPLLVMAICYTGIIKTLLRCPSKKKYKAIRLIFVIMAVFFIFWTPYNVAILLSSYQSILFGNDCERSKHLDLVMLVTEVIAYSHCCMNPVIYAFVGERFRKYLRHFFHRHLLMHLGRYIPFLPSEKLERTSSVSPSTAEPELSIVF
Test: In vitro inhibition if C-C chemokine receptor type 3 (CCR3) using 150p M [125I]-labeled human eotaxin

SMILES | IC50
N#Cc1cccc(NC(=O)NCCCN2CC[C@@H]3[C@H](C2)c2cccc4c2N3CC4)c1 | 700 nM
O=C(NCCCCN1CCC(Cc2ccccc2)CC1)c1ccccc1 | 800 nM
COc1cccc(NC(=O)N2CCCC(N3CCC(Cc4ccc(F)cc4)CC3)C2)c1 (racemic) | 530 nM
CN(C)c1ccc(NC(=O)NCCCN2CC[C@@H]3[C@H](C2)c2cccc4c2N3CC4)cc1 | 4800 nM
COc1ccccc1C(=O)NCCCCN1CC[C@@H]2[C@H](C1)c1cccc3c1N2CC3 | 6800 nM
CN(C)c1ccc(NC(=O)NCCCN2CCC(Cc3ccccc3)CC2)cc1 | 1600 nM
COc1cccc(C(=O)NCCCCN2CCC(Cc3ccccc3)CC2)c1 | 1200 nM
COc1cccc(NC(=O)N2CCC(N3CCC(Cc4ccccc4)CC3)CC2)c1 | 2300 nM
N#Cc1ccc(C(=O)NCCCCN2CCC(Cc3ccccc3)CC2)cc1 | 1300 nM
CC[C@H](O)[C@H]1C[C@@H](Cc2ccccc2)CCN1CCCNC(=O)Nc1cccc(C(C)=O)c1 (stereo in doubt; 85) | 6 nM
COc1cccc(C(=O)NCCCCN2CC[C@@H]3[C@H](C2)c2cccc4c2N3CC4)c1 | 8100 nM
COc1cccc(NC(=O)N2CCCCC2CN2CCC(Cc3ccc(F)cc3)CC2)c1 (racemic) | 170 nM
O=C(CCCN1CC[C@@H]2[C@H](C1)c1cccc3c1N2CC3)c1ccc(F)cc1 | 1100 nM
CC(=O)c1cccc(NC(=O)NCCCN2CC[C@H](Cc3ccccc3)C[C@@H]2[C@H](O)CC(C)C)c1 | 60 nM
CC(=O)c1cccc(NC(=O)NCCCN2CC[C@H](Cc3ccccc3)C[C@@H]2Cc2ccccc2)c1 | 200 nM
CCCC[C@H](O)[C@H]1C[C@@H](Cc2ccccc2)CCN1CCCNC(=O)Nc1cccc(C(C)=O)c1 (stereo in doubt; form 2) | 80 nM
N#Cc1cccc(NC(=O)NCCCCCN2CCC(Cc3ccccc3)CC2)c1 | 1200 nM
N#Cc1cccc(NC(=O)NCCCCN2CCC(Cc3ccccc3)CC2)c1 | 500 nM
CC[C@@H](O)[C@H]1C[C@@H](Cc2ccccc2)CCN1CCCNC(=O)Nc1cccc(C(C)=O)c1 | 50 nM
CCC[C@H]1C[C@@H](Cc2ccccc2)CCN1CCCNC(=O)Nc1cccc(C(C)=O)c1 (stereo in doubt) | 200 nM
O=C(NCCN1CC[C@@H]2[C@H](C1)c1cccc3c1N2CC3)c1ccc(F)cc1 | 8300 nM
O=C(NCCCN1CC[C@@H]2[C@H](C1)c1cccc3c1N2CC3)Nc1cccc(I)c1 | 1100 nM
CC(=O)c1cccc(NC(=O)NCCCN2CC[C@H](Cc3ccccc3)C[C@@H]2[C@@H](O)C(C)C)c1 | 50 nM
CC(=O)c1cccc(NC(=O)NCCCN2CC[C@H](Cc3ccccc3)C[C@@H]2C(C)(C)O)c1 | 200 nM

Other lines, results leading:

IC50 | SMILES
20 nM | CSc1cccc(NC(=O)NCCCN2CCC(Cc3ccc(F)cc3)CC2)c1
100 nM | O=C(NCCCN1CCC(Cc2ccc(F)cc2)CC1)Nc1cccc(-c2ccco2)c1
200 nM | O=C(NCCCN1CCC(Cc2ccc(F)cc2)CC1)Nc1cccc(-c2cccs2)c1
200 nM | N#Cc1cccc(NC(=O)NCCCN2CCC(Cc3ccccc3)CC2)c1
70 nM | CS(=O)(=O)c1ccc(NC(=O)NCCCN2CCC(Cc3ccc(F)cc3)CC2)cc1
1000 nM | O=C(NCCCCN1CCC(Cc2ccccc2)CC1)c1ccc(F)cc1
200 nM | C[S+]([O-])c1ccc(NC(=O)NCCCN2CCC(Cc3ccc(F)cc3)CC2)cc1 (configuration not stated)
20 nM | CS(=O)(=O)c1cccc(NC(=O)NCCCN2CCC(Cc3ccc(F)cc3)CC2)c1
100 nM | O=C(NCCCN1CCC(Cc2ccc(F)cc2)CC1)NC1CCCCC1
1200 nM | O=C(NCCCN1CCC(Cc2ccccc2)CC1)Nc1ccc(C(F)(F)F)cc1
90 nM | O=C(NCCCN1CCC(Cc2ccc(F)cc2)CC1)NC12CC3CC(CC(C3)C1)C2
7 nM | O=C(NCCCN1CCC(Cc2ccc(F)cc2)CC1)Nc1ccc([N+](=O)[O-])cc1
200 nM | O=C(NCCCN1CCC(Cc2ccc(F)cc2)CC1)Nc1ccccc1C(F)(F)F
